In ChEMBL document CHEMBL4184283, “High expression of class III β-tubulin has no impact on functional cancer cell growth inhibition of a series of key vinblastine analogs” (Bioorg Med Chem Lett, 2018):

How the values were obtained:
A549 = assay: Growth inhibition of human A549 cells; type: functional, cell-based
[1] = Selectivity ratio of IC50 for human HCT116/VM46 cells over-expressing P-gp to IC50 for human HCT116 cells; type: functional
[2] = Growth inhibition of human A549-T24 cells over-expressing class-3 beta-tubulin; type: functional
[3] = Selectivity ratio of IC50 for human A549-T24 cells over-expressing class-3 beta-tubulin to IC50 for human A549 cells; type: functional
HCT-116/VM46 = assay: Growth inhibition of human HCT116/VM46 cells over-expressing P-gp after 72 hrs by phosphatase assay; type: functional, cell-based; details: HCT-116/VM46, 72 h
L1210 = assay: Growth inhibition of mouse L1210 cells after 72 hrs by phosphatase assay; type: functional, cell-based; details: L1210, 72 h
HCT-116 = assay: Growth inhibition of human HCT116 cells after 72 hrs by phosphatase assay; type: functional, cell-based; details: HCT-116, 72 h

Compound	IC50 (A549)	IC50 (HCT-116/VM46)	IC50 (L1210)	IC50 (HCT-116)	Ratio IC50 [1]	IC50 [2]	Ratio IC50 [3]
CC(=O)O[C@H]1C(=O)[C@@]2(C)[C@H]([C@H](OC(=O)c3ccccc3)[C@]3(O)C[C@H](OC(=O)[C@H](O)[C@@H](NC(=O)c4ccccc4)c4ccccc4)C(C)=C1C3(C)C)[C@]1(OC(C)=O)CO[C@@H]1C[C@@H]2O [PACLITAXEL]	7.1 nM	> 200 nM	–	–	>50	70 nM	10
CC[C@]1(NC(=O)c2ccc3c(c2)CCCC3)C[C@H]2CN(CCc3c([nH]c4ccc(F)cc34)[C@@](C(=O)OC)(c3cc4c(cc3OC)N(C)[C@H]3[C@@](O)(C(=O)OC)[C@H](OC(C)=O)[C@]5(CC)C=CCN6CC[C@]43[C@@H]65)C2)C1	7.6 nM	8.7 nM	3 nM	4.9 nM	1.8	6.5 nM	<1
CC[C@]1(NC(=O)c2ccc3c(c2)CCCO3)C[C@H]2CN(CCc3c([nH]c4ccc(F)cc34)[C@@](C(=O)OC)(c3cc4c(cc3OC)N(C)[C@H]3[C@@](O)(C(=O)OC)[C@H](OC(C)=O)[C@]5(CC)C=CCN6CC[C@]43[C@@H]65)C2)C1	1.4 nM	1.8 nM	0.4 nM	0.5 nM	3.8	0.8 nM	<1
CC[C@]1(O)C[C@H]2CN(CCc3c([nH]c4ccc(F)cc34)[C@@](C(=O)OC)(c3cc4c(cc3OC)N(C)[C@H]3[C@@](O)(C(=O)OC)[C@H](OC(C)=O)[C@]5(CC)C=CCN6CC[C@]43[C@@H]65)C2)C1	2.9 nM	–	–	–	100	0.8 nM	<1

Continued by falling IC50 (A549), values first:

IC50 (A549)	IC50 (HCT-116/VM46)	IC50 (L1210)	IC50 (HCT-116)	Compound	Ratio IC50 [1]	IC50 [2]	Ratio IC50 [3]
7.7 nM	–	–	–	CC[C@]1(O)C[C@@H]2CN(CCc3c([nH]c4ccccc34)[C@@](C(=O)OC)(c3cc4c(cc3OC)N(C)[C@H]3[C@@](O)(C(=O)OC)[C@H](OC(C)=O)[C@]5(CC)C=CCN6CC[C@]43[C@@H]65)C2)C1 [VINBLASTINE]	–	6.7 nM	<1
5 nM	7.6 nM	3 nM	4.5 nM	CC[C@]1(NC(=O)c2ccc(C)c(C)c2)C[C@H]2CN(CCc3c([nH]c4ccc(F)cc34)[C@@](C(=O)OC)(c3cc4c(cc3OC)N(C)[C@H]3[C@@](O)(C(=O)OC)[C@H](OC(C)=O)[C@]5(CC)C=CCN6CC[C@]43[C@@H]65)C2)C1	1.7	2.5 nM	<1
0.7 nM	7.5 nM	0.5 nM	0.6 nM	CC[C@]1(NC(=O)N2Cc3ccccc3C2)C[C@H]2CN(CCc3c([nH]c4ccc(F)cc34)[C@@](C(=O)OC)(c3cc4c(cc3OC)N(C)[C@H]3[C@@](O)(C(=O)OC)[C@H](OC(C)=O)[C@]5(CC)C=CCN6CC[C@]43[C@@H]65)C2)C1	12	0.7 nM	1
0.53 nM	0.87 nM	0.06 nM	0.07 nM	CC[C@]1(NC(=O)N2Cc3ccc(NC(=O)c4cccnn4)cc3C2)C[C@H]2CN(CCc3c([nH]c4ccc(F)cc34)[C@@](C(=O)OC)(c3cc4c(cc3OC)N(C)[C@H]3[C@@](O)(C(=O)OC)[C@H](OC(C)=O)[C@]5(CC)C=CCN6CC[C@]43[C@@H]65)C2)C1	12	0.26 nM	<1
0.19 nM	0.83 nM	0.06 nM	0.07 nM	CC[C@]1(NC(=O)N2Cc3ccc(NC(=O)c4cnccn4)cc3C2)C[C@H]2CN(CCc3c([nH]c4ccc(F)cc34)[C@@](C(=O)OC)(c3cc4c(cc3OC)N(C)[C@H]3[C@@](O)(C(=O)OC)[C@H](OC(C)=O)[C@]5(CC)C=CCN6CC[C@]43[C@@H]65)C2)C1	12	0.09 nM	<1
0.17 nM	0.88 nM	0.06 nM	0.07 nM	CC[C@]1(NC(=O)N2Cc3ccc(NC(=O)c4ccncn4)cc3C2)C[C@H]2CN(CCc3c([nH]c4ccc(F)cc34)[C@@](C(=O)OC)(c3cc4c(cc3OC)N(C)[C@H]3[C@@](O)(C(=O)OC)[C@H](OC(C)=O)[C@]5(CC)C=CCN6CC[C@]43[C@@H]65)C2)C1	13	0.13 nM	<1
